Experimental data as given in patent publication EP4144350B1, “TREATMENT OR PREVENTION OF VASCULAR MALFORMATION” (Universitätsmedizin Greifswald, priority 2021, dated 2023).

What was measured:
Format in all cases: cell-based, human
[1] = test system: CCM3^-/- CI-huVECs; experiment: CyQuant cell proliferation assay combined with mutant allele frequencies, co-culture (mutant cells); settings: six days
Method: Clonally expanded CI-huVEC lines with biallelic loss-of-function variants in the first coding exon of CCM3 have been described before or were established according to a published CRISPR/Cas9 genome editing protocol. Blood outgrowth endothelial cells (BOECs) were cultured in EGM-2 medium (Lonza, Basel, Switzerland) supplemented with 18 % FCS. With the approval of the local ethics committee (University Medicine Greifswald, Germany; No.: BB 047/14a), CCM1^-/- BOECs had been established previously from CCM1^+/- BOECs of a CCM1 mutation carrier with CRISPR/Cas9 genome editing. Mutant and wild-type ECs were co-cultured in 96-well plates under standard culture conditions with the indicated mutant-to-wild-type ratios. 2500 cells were seeded per well. The proliferation rate of mutant and wild-type ECs in monoculture was quantified with the CyQuant® Cell Proliferation Assay Kit (C7026, Thermo Fisher Scientific). To discriminate the proliferation rates of CCM3^+/+ and CCM3^-/- CI-huVEC in co-culture, the CyQuant® Cell Proliferation Assay results were combined with mutant allele frequencies that had been determined by amplicon deep sequencing. To analyse their sensitivity to apoptosis, mutant and wild-type ECs were seeded in 96-well plates with 15.000 cells per well, and treated with staurosporine ([…], Sigma-Aldrich, St. Louis, MO, USA) 24 h later. The Caspase-3 DEVD-R110 Fluorometric HTS Assay Kit (30009, Biotium, Fremont, CA, USA), the Cell Meter^TM Caspase 8 Activity Apoptosis Assay Kit (22798, AAT Bioquest, Sunnyvale, CA, USA), and the Cell Meter^TM Caspase 9 Activity Apoptosis Assay Kit (22799, AAT Bioquest) were used following the manufacturer's instructions.

[2] = test system: CI-huVECs; experiment: Bright-field microscopy of EC morphology after compound treatment; settings: library screening follow-up (Fig. 14)
[3] = test system: CCM3^-/- CI-huVECs; experiment: Cell cycle analysis by flow cytometry; settings: 10 µM, 72 h; DMSO 75.9 %
Method: Plating efficiencies were determined as follows: CCM3^+/+ and CCM3^-/- CI-huVEC were seeded in 6-well-plates with either 100 or 250 cells per well. Colonies fixed and stained after eight days with a solution of glutaraldehyde (G6257, Sigma-Aldrich, final concentration 6 %) and crystal violet (HT901, Sigma-Aldrich, final concentration 0.5 %). The plating efficiency was defined as the ratio between the number of colonies and the number of plated cells. A cell cycle analysis kit (MAK344, Sigma-Aldrich) was used to determine cell cycle profiles by flowcytometry (LSRII Flow Cytometer System, BD Biosciences, San Jose, CA, USA). One day after plating, cells were synchronised for 24 h with ECGM supplemented with 0.1 % FCS. Prior to FACS analysis, cells were incubated with ECGM + 10 % FCS for another 24 h or treated with 10 µM NSC59984 for 72 h. Data were analysed with FlowJo v10.7.1 (BD Biosciences).

Compound: CN1CCN(C(=O)/C=C/c2ccc([N+](=O)[O-])o2)CC1 [NSC59984, (E)-1-(4-methylpiperazin-1-yl)-3-(5-nitrofuran-2yl)prop-2-en-1-one]
- Relative proliferation rate of CCM3^-/- CI-huVECs ([1]; 1 µM): 4632%
- Relative proliferation rate of CCM3^-/- CI-huVECs ([1]; 5 µM): 1671%
- Relative proliferation rate of CCM3^-/- CI-huVECs ([1]; 10 µM): 419%
- EC morphology / endothelial phenotype [2]: minimal effects on EC morphology
- Cells in G0/G1 (G0/G1 arrest) [3]: 87.7%
